# Source: publication PMC11096368, “Transcriptomic signature, bioactivity and safety of a non-hepatotoxic analgesic generating AM404 in the midbrain PAG region” (Scientific Reports, 2024)
# Entries after “also recorded” stand apart in the source; their conditions may differ.
# Tests used:
# beagle dogs [1] = test: Cardiovascular effect in conscious telemetered beagle dogs (GLP); type: in vivo, dog; settings: oral, 30, 90, 150 mg/kg
# Protocol: The effects of SRP-001 on hERG current amplitude at physiologic temperatures were evaluated over a nominal concentration range of 0.1 μM to […]. A vehicle group (10% DMSO) was included in the study for comparison, and dofetilide (10 nM) was used as a reference substance. The vehicle and positive controls indicated appropriate sensitivity of the test systems. […] Next, the potential acute effects of oral SRP-001 on cardiovascular function in conscious telemetered beagle dogs was done using a Latin Square design; 4 male naïve beagle dogs each received vehicle (10% DMSO: 10% labrasol: 80% PEG400) and three doses (30, 90, and 150 mg/kg) of SRP-001 nanosuspension by oral gavage. […] A single dose was administered on the day of dosing, and a washout period of seven days was allowed between doses. One-min means of hemodynamic parameters, as well as ECG parameters and body temperature, were measured for a period of at least 24 h. One-min tracings of the ECGs were obtained at 15 min prior to dosing and at 30 min, 1, 2, 4, 8, 12, and 24 h post-dose. Qualitative evaluation of the ECGs was done by a board-certified veterinary cardiologist.
# male Sprague–Dawley rats = test: Neuropharmacological profile, modified Irwin/Functional Observational Battery (GLP); type: in vivo; settings: for Body temperature versus vehicle: 1 h post-dose
# Protocol: Any potential neuropharmacological effects of orally administered SRP-001 in rats were assessed in three groups of eight male Sprague–Dawley rats. Each was orally administered SRP-001 at a single dose of 220, 440, or 660 mg/kg. Vehicle (10% labrasol: 10% DMSO: 80% PEG400) was administered to an additional group of eight rats. The dose volume was 10 mL/kg. […] All observations were made at ± 5 min for the observations through 1 h post-dose and ± 15 min for the later observations. Body temperature was measured 1 h following dose administration.
# [2] = 28-day oral toxicity study with 14-day recovery (GLP); type: in vivo, dog; settings: both sexes, Beagle, dog, in vivo, oral; given T.I.D. for 28 days; read-out: No adverse effect level (NOAEL)
# Protocol: (§1) SRP-001 was supplied by Olon Ricerca Bioscience as an off-white powder. The test article was then prepared into dosing suspensions for oral administration via gavage (Calvert Labs/Altasciences, Scott Township, PA USA). Thirty-two experimentally naïve Beagle dogs (16 males and 16 females), 8–9 months old and weighing 6.7–10.5 kg for males and females at the outset of the study, were administered 0, 165, 330, or 495 mg/kg/d. Animals were dosed three times daily (3–5 h between doses) for 28 consecutive days. Prior to this dosing schedule, the dosing was initiated with once daily dosing at 0, 100, 300, or 900 mg/kg at a dose volume of 5 to 10 ml/kg. Due to adverse clinical signs noted following dosing of all groups at a dose volume of 10 ml/kg, dosing of the animals was suspended on day 2 for males and day 1 for females. The study was restarted with T.I.D. dosing in lower dose volume to reduce vehicle-related toxicity.
# (§2) In-life data from the initial start of the study using once daily dosing were not included in the report but are maintained in the study file. Following the restart of the study, the study was conducted as follows. Mortality/morbidity was performed twice daily and once prior to the scheduled sacrifice. Animals were observed prior to each dose administration and 1–3 h after each dose administration. Animals were also observed once daily on non-dosing days and once prior to scheduled sacrifice. Body weights were recorded prior to randomization/selection, prior to the first dose administration on day 1 and weekly thereafter. Food consumption was determined daily. Ophthalmology examinations and electrocardiograms were performed before treatment initiation and during the last week of dosing. Blood for evaluation of hematology, coagulation and clinical chemistry and urine for urinalysis was collected prior to treatment initiation and on days 29 and 43. Blood for toxicokinetic evaluation was collected at selected timepoints on days 1 and 28. All surviving animals were sacrificed on day 29 or day 43. Selected tissues were harvested at necropsy, selected organs weighed, and selected tissues evaluated microscopically.
# (§3) Due to the limited magnitude of the changes in hematology parameters and the corresponding changes in reticulocytes, this finding was not considered adverse.
# (§4) This finding was indicative of the biliary system starting to be overwhelmed and was considered adverse. Other microscopic findings of the liver included Kupffer cell pigment, Kupffer cell erythrophagocytosis, and Kupffer cell hypertrophy/hyperplasia. The Kupffer cell changes were thought to be, at least in part, due to phagocytosis of erythrocytes resulting in the accumulation of cytoplasmic pigment and increased demand for Kupffer cells resulting in hypertrophy/hyperplasia. These microscopic changes correlated with increased liver organ weights. Microscopic evaluation also identified thyroid gland follicular cell hypertrophy.
# (§5) Only microscopic changes in Kupffer cell pigment and erythrophagocytosis and minimal increased erythroid cellularity of the bone marrow were still present in Group-4 animals following the recovery period. Exposure to SRP-001 was dose-dependent and generally dose-proportional to greater than dose-proportional from 165 to 330 mg/kg/d and less than dose-proportional from 330 to 495 mg/kg/d. Exposure to SRP-001 following 28 consecutive days of oral dosing was 2 to 5 times less than exposure observed on day 1. Based on the clinical signs, microscopic changes, and clinical pathology changes, the no-adverse-effect level for SRP-001 was 330 mg/kg/d when given T.I.D. for 28 d.
# beagle dogs [3] = test: as above; type: in vivo, dog
# Protocol: as §1, §2, §3, §4, §5
# [4] = Stability of API and oral nanosuspension; type: physicochemical
# Protocol: The drug therapeutic candidate is manufactured in a two-step process (Latitude Pharmaceuticals, Inc., San Diego, CA, USA). First, SRP-001 is jet milled. Second, the milled API is dispersed in a solution comprising 1% hydroxypropyl cellulose (1% HPC) and sterile water for injection and subjected to wet milling. The target particle size is approximately D90 0.15 μm. […] An oral nanoparticle suspension containing 100 mg/mL SRP-001 in aqueous 1% HPC preserved with 0.1% sodium benzoate was manufactured for use in nonclinical studies as Lot LPI2021028 and stored at 5 °C ± 3 °C. […] The same formulation as above was manufactured under cGMP for use in clinical studies as Lot LPI2021031 and stored at 5 °C ± 3 °C. […] This lot has been placed on stability at 5 °C, 25 °C/60%RH, and 40 °C/75%RH. Finally, an appearance-matched placebo consisting of 2% microcrystalline cellulose in aqueous 1% HPC preserved with 0.1% sodium benzoate and 0.05% EDTA disodium dihydrate was manufactured under cGMP for use in clinical studies. The above oral suspensions were manufactured by Latitude Pharmaceuticals Inc. (San Diego, CA, USA).
# [5] = Toxicokinetics following IV & PO dosing; type: in vivo, dog; settings: beagle dogs
# From the text: Supplementary Fig. 19. Toxicokinetic (TK) beagle dog data.
# [6] = both, Beagle, dog, in vivo, po, 28 d
compound,measurement,setting,value
"CCN(CC)C(=O)c1ccccc1S(=O)(=O)NCC(=O)Nc1ccc(O)cc1 [SRP-001, N,N-diethyl-2-[[2-(4-hydroxyanilino)-2-oxo-ethyl]sulfamoyl]benzamide]","Cardiovascular findings (blood pressure, heart rate, ECG, body temperature)",beagle dogs [1],did not induce any biologically relevant effects; also recorded: No significant findings
same,Body temperature versus vehicle,male Sprague–Dawley rats; 220 or 440 mg/kg,not affected
same,Body temperature versus vehicle,male Sprague–Dawley rats; high-dose group (660 mg/kg),significantly (p ≤ 0.05) lower; also recorded: lower body temperature; also recorded: Decreased body temp
same,Neuropharmacological or clinical signs,"male Sprague–Dawley rats; oral, 220, 440, 660 mg/kg, through 24 h post-dose",No apparent neuropharmacological or clinical signs; also recorded: No apparent neuropharmacological effects
same,NOAEL at 28 d,[2],330 mg/kg/day
same,"Body weights, food consumption, ophthalmology, electrocardiology, coagulation, urinalysis",beagle dogs [3]; 28 days,No SRP-001 related changes
same,Reversibility after 14-day recovery period,"beagle dogs [3]; both, Beagle, dog, in vivo, 14 d",nearly all SRP-001-related changes observed on day 29 were reversible
same,Doses without treatment-related adverse effects,beagle dogs [3]; [6],up to 330 mg/kg/day
same,Exposure after 28 consecutive days relative to day 1,beagle dogs [3]; [6],2-5 times less
same,Clinical chemistry parameters,"beagle dogs [3]; dog, in vivo",increases in triglycerides and alkaline phosphatase and decreases in cholesterol
same,Clinical signs,"beagle dogs [3]; dog, in vivo","emesis, loose feces, and salivation"
same,Hematology parameters,"beagle dogs [3]; dog, in vivo","decreases in red blood cells, hemoglobin, hematocrit, and mean corpuscular hemoglobin concentration"
same,Reversibility after 14-day recovery period,"beagle dogs [3]; dog, in vivo",nearly all SRP-001 related changes observed on Day 29 were reversible
same,Stability of the API,[4]; 25 °C/60%RH,at least 9 months
same,Stability of the API,[4]; 40 °C/75%RH,≥ 6 months
same,Exposure versus dose,[5],dose-dependent response
same,Time of Cmax,[5],15 to 30 min
